Read-outs that look alike come from different tables or passages of the source.
Tests used:
rabbit aorta = assay: Relaxing effect on isolated rabbit aorta contracted (depolarized) by KCl; settings: Oryctolagus cuniculus, read-out: ED50 (dose causing a 50% relaxation of the precontracted arteries)
Description: I. RELAXING EFFECT ON ISOLATED RABBIT AORTA CONTRACTED BY KCl
The thoracic aortae of male rabbits are removed, cut into narrow strips and placed under tension in an oxygenated survival medium. The contractions of these arteries, the amplitude of which is measured using a myograph, are induced by a 127 mM solution of KCl [R. Towart et al., Arzneim.-Forsch./Drug Res. 32, 338-346 (1982)]. The compounds studied are dissolved in a mixture of anhydrous ethanol and double distilled water (1:1) v/v, the percentage of ethanol in the baths being less than or equal to 0.3% at the end of the experiment. When the contraction plateau is reached, the compound is added to the medium in increasing doses every 15 minutes.

[1] = system: spontaneously hypertensive rats; assay: Antihypertensive activity in spontaneously hypertensive rats, oral administration; assay type: in vivo; settings: for change in vivo at 30 mg/kg / change in vivo at 10 mg/kg: Rattus norvegicus
Description: Spontaneously hypertensive rats aged between 16 and 20 weeks are used. The systolic pressure is measured by plethysmography and the heart rate is obtained from the pressure graph. The compounds studied are administered orally.

in vivo = settings: rat, intravenous, male Wistar rats weighing 300 g
Description: The LD50 was determined by intravenous administration to male Wistar rats weighing 300 g.

[2] = system: spontaneously hypertensive rats; assay: Antihypertensive activity in spontaneously hypertensive rats, intravenous administration; assay type: in vivo; settings: single i.v. dose; Ex. 2 30, Ex. 7 100, Ex. 8 300, Ex. 11 30 and 100 μg/kg; versus nicardipine and nifedipine
Description: 2. Intravenous administration
Spontaneously hypertensive rats aged between 16 and 20 weeks are used. They are anesthetized with diethyl ether, a cannula is inserted into the caudal artery to measure the arterial pressure and a catheter is inserted into the right jugular vein to administer the compounds as described previously (L. S. Watson and L. T. Ludden, New Antihypertensive Drugs, pages 87-96, Spectrum Publication, Inc., 1976).
Each curve C relates to the control group receiving only the vehicle and each curve T relates to the treated group [n (number of animals per group)=4-7]. The said groups are compared either by analysis of variance, if the variances are homogenous (Bartlett's homocedasticity test), or by Kruskall-Wallis's non-parametric test (the statistically significant results being represented as follows:
FIGS. 1-6 relate to the variation in systolic pressure, expressed in mm Hg (1 mm Hg corresponds approximately to 1.333×10^2 Pa), as a function of time, expressed in minutes, and FIGS. 1a-6a relate to the variation in diastolic pressure, also expressed in mm Hg, as a function of time, expressed in minutes, for the treated groups (curves T) compared with the corresponding control groups (curves C), the doses of products administered being as follows:
FIGS. 2 and 2a: nicardipine at 30 μg/kg i.v.,
FIGS. 3 and 3a: Example 2 at 30 μg/kg i.v.,
FIGS. 4 and 4a: Example 7 at 100 μg/kg i.v.,
FIGS. 5 and 5a: Example 8 at 300 μg/kg i.v., and
FIGS. 6 and 6a: Example 11 at 30 and 100 μg/kg i.v. (curves T1 and T2).

anesthetized dogs = assay: Hemodynamic effects on anesthetized dogs, intraduodenal administration; assay type: in vivo, Mongrel dogs; settings: for % variation T.P.R. (total peripheral resistances) / duration of the effect, T.P.R. (total peripheral resistances): calculated
Description: III. HEMODYNAMIC EFFECTS ON ANESTHETIZED DOGS Mongrel dogs are anesthetized with pentobarbital sodium (25 mg/kg i.v.). Each animal is placed under artificial respiration and a catheter is introduced into the aorta to measure the arterial pressure. The outputs of the aorta (O. Aor.), right femoral artery (O. Fem.) and left coronary artery (descending part) (O. Cor.) are measured continuously by means of electromagnetic rings. The total peripheral resistances (T.P.R.) are also calculated. […]

[3] = rabbit aorta depolarized by 127 mM KCl
[4] = 30 mg/kg, read-out: % variation Heart rate
[5] = 30 mg/kg, read-out: % variation Systolic pressure
[6] = 0.5 mg/kg, versus nicardipine and nifedipine

| SMILES | EC50 (rabbit aorta; [3]) [nM] | change in vivo at 30 mg/kg [1, 4] [%] | change in vivo at 30 mg/kg [1, 5] [%] | LD50 (in vivo) [mg/kg] | duration of the effect, Systolic pressure ([1]; 30 mg/kg) [h] | also measured |
| --- | --- | --- | --- | --- | --- | --- |
| COC(=O)C1=C(C)NC(C)=C(C(=O)OCC2COCO2)C1c1cccc([N+](=O)[O-])c1 (racemic) [Example 3] | 43 |  |  |  |  |  |
| COC(=O)C1=C(C)NC(C)=C(C(=O)OCCC2COC(C)(C)O2)C1c1cccc([N+](=O)[O-])c1 (racemic) [Example 4, methyl 2-[(2,2-dimethyl-1,3-dioxolan-4-yl)ethyl]1,4-dihydro-2,6-dimethyl-4-(3-nitrophenyl)pyridine-3,5-dicarboxylate] | 32 |  |  |  |  |  |
| COC(=O)C1=C(C)NC(C)=C(C(=O)OCC2CSC(C)(C)O2)C1c1cccc([N+](=O)[O-])c1 (racemic) [Example 6] | 35 | 21.4 | -35.1 ± 9.2 | 34.2 |  |  |
| COC(=O)C1=C(C)NC(C)=C(C(=O)OCC2COC(C)(c3ccccc3)O2)C1c1cccc([N+](=O)[O-])c1 (racemic) [Example 7] |  | 36.4 | -40.5 ± 5.1 | 17.8 | > 24 | duration of the antihypertensive effect (in words) [2]: notably longer than that of nicardipine and nifedipine |
| COC(=O)C1=C(C)NC(C)=C(C(=O)OCC2COC(c3ccccc3)(c3ccccc3)O2)C1c1cccc([N+](=O)[O-])c1 (racemic) [Example 8] | > 5000 | 12.4 | -37 ± 9 | 44.4 | > 24 | duration of the antihypertensive effect (in words) [2]: notably longer than that of nicardipine and nifedipine |
| COC(=O)C1=C(C)NC(C)=C(C(=O)OCC2COC(C)(c3ccc(Cl)cc3Cl)O2)C1c1cccc([N+](=O)[O-])c1 (racemic) [Example 11] | > 5000 | 34 | -54 ± 5.9 | 38.9 | > 24 | duration of the antihypertensive effect (in words) [2]: notably longer than that of nicardipine and nifedipine |
| COC(=O)C1=C(C)NC(C)=C(C(=O)OCC2(C)OCCO2)C1c1cccc([N+](=O)[O-])c1 (centres unmarked) [CP 1, methyl 2,2ethylenedioxypropyl 2,6dimethyl-4-(3-nitrophenyl)-1,4-dihydropyridine-3,5-dicarboxylate, reference compound] | 250 | 0 | -11.6 ± 6 |  | 0 |  |
| COC(=O)C1=C(C)NC(C)=C(C(=O)OCC2COC(C)(C)O2)C1c1cccc([N+](=O)[O-])c1 (centres unmarked) [Example 1, methyl (2,2-dimethyl-1,3-dioxolan-4-yl)methyl 1,4-dihydro-2,6-dimethyl-4-(3-nitrophenyl)pyridine-3,5-dicarboxylate] | 31 | 16.4 | -28.4 ± 7.3 | 22.5 |  | % variation D.P. (diastolic pressure) (anesthetized dogs; 0.5 mg/kg): -42.6%; % variation O. Aor. (output of the aorta) (anesthetized dogs; 0.5 mg/kg): +124%; % variation O. Cor. (output of left coronary artery) (anesthetized dogs; 0.5 mg/kg): +73.6%; % variation O. Fem. (output of right femoral artery) (anesthetized dogs; 0.5 mg/kg): +114%; duration of the effect, D.P. (diastolic pressure) (anesthetized dogs; 0.5 mg/kg): 120 min; duration of the effect, O. Aor. (output of the aorta) (anesthetized dogs; 0.5 mg/kg): 120 min; duration of the effect, O. Fem. (output of right femoral artery) (anesthetized dogs; 0.5 mg/kg): 270 min; % variation T.P.R. (total peripheral resistances) (anesthetized dogs; 0.5 mg/kg): -65%; duration of the effect, T.P.R. (total peripheral resistances) (anesthetized dogs; 0.5 mg/kg): 300 min; cardiac, femoral and coronary outputs (in words) (anesthetized dogs; [6]): increased for a longer time and to a greater extent; drop in total peripheral resistances (in words) (anesthetized dogs; [6]): greater drop in total peripheral resistances than nicardipine and nifedipine; duration of drop in total peripheral resistances (in words) (anesthetized dogs; [6]): considerably longer |
| COC(=O)C1=C(C)NC(C)=C(C(=O)OCC2COC3(CCCC3)O2)C1c1cccc([N+](=O)[O-])c1 (centres unmarked) [Example 5, methyl (1,4-dioxaspiro[4,4]nonan-2-yl)methyl 1,4-dihydro-2,6-dimethyl-4-(3-nitrophenyl)pyridine-3,5-dicarboxylate] |  | 19.3 | -40.4 ± 9.4 |  |  | duration of the effect, Heart rate ([1]; 30 mg/kg): 4 h |
| COC(=O)C1=C(C)NC(C)=C(C(=O)OCC2COC(c3ccccc3)(C(F)(F)F)O2)C1c1cccc([N+](=O)[O-])c1 (centres unmarked) [Example 12] | 5000 |  |  |  |  | duration of the effect, Systolic pressure ([1]; 10 mg/kg): > 24 h; change in vivo at 10 mg/kg ([1]; 10 mg/kg, read-out: % variation Heart rate): 31.2%; change in vivo at 10 mg/kg ([1]; 10 mg/kg, read-out: % variation Systolic pressure): -41.4 ± 10% |
| COC(=O)C1=C(C)NC(C)=C(C(=O)OCC2COC(C(F)(F)F)(C(F)(F)F)O2)C1c1cccc([N+](=O)[O-])c1 (centres unmarked) [Example 13] | > 5000 | 25 |  |  | > 24 |  |
| COC(=O)C1=C(C)NC(C)=C(C(=O)OCC2COC(c3ccccc3)O2)C1c1cccc([N+](=O)[O-])c1 (centres unmarked) [Example 14] | > 5000 | 19.9 | -58.4 ± 32.9 |  | > 24 | duration of the effect, Heart rate ([1]; 30 mg/kg): > 24 h |
| COC(=O)C1=C(C)NC(C)=C(C(=O)OCCN(C)Cc2ccccc2)C1c1cccc([N+](=O)[O-])c1 (centres unmarked) [nicardipine, methyl 2-(N-methyl-N-benzylamino)ethyl 1,4-dihydro-2,6-dimethyl-4-(3-nitrophenyl)pyridine-3,5-dicarboxylate, reference compound] | 26 | 21.3 | -46.2 ± 6.8 | 11.8 |  | % variation D.P. (diastolic pressure) (anesthetized dogs; 0.5 mg/kg): -34.5%; % variation O. Aor. (output of the aorta) (anesthetized dogs; 0.5 mg/kg): +25%; % variation O. Cor. (output of left coronary artery) (anesthetized dogs; 0.5 mg/kg): +62.2%; % variation O. Fem. (output of right femoral artery) (anesthetized dogs; 0.5 mg/kg): +70.6%; duration of the effect, D.P. (diastolic pressure) (anesthetized dogs; 0.5 mg/kg): 150 min; % variation T.P.R. (total peripheral resistances) (anesthetized dogs; 0.5 mg/kg): -40.5%; duration of the effect, T.P.R. (total peripheral resistances) (anesthetized dogs; 0.5 mg/kg): 90 min |
| COC(=O)C1=C(C)NC(C)=C(C(=O)OC)C1c1ccccc1[N+](=O)[O-] [nifedipine, dimethyl 1,4-dihydro-2,6-dimethyl-4-(2-nitrophenyl)pyridine-3,5-dicarboxylate, reference compound] |  | 35.4 | -35.2 ± 4.7 |  |  | EC50 (rabbit aorta): 22 nM; % variation D.P. (diastolic pressure) (anesthetized dogs; 0.35 mg/kg): -44.2%; % variation O. Aor. (output of the aorta) (anesthetized dogs; 0.35 mg/kg): +20.5%; % variation O. Cor. (output of left coronary artery) (anesthetized dogs; 0.35 mg/kg): +66.4%; % variation O. Fem. (output of right femoral artery) (anesthetized dogs; 0.35 mg/kg): +76.4%; duration of the effect, D.P. (diastolic pressure) (anesthetized dogs; 0.35 mg/kg): 240 min; duration of the effect, O. Fem. (output of right femoral artery) (anesthetized dogs; 0.35 mg/kg): 10 min; % variation T.P.R. (total peripheral resistances) (anesthetized dogs; 0.35 mg/kg): -48.6%; duration of the effect, T.P.R. (total peripheral resistances) (anesthetized dogs; 0.35 mg/kg): 180 min |
